Patent US6894075B2, “4′-demethyl-4′-O-substituted-1-deoxypodophyllotoxin derivative and geometric isomer thereof, process for the preparation thereof and anti-cancer composition comprising the same” (priority 2000, dated 2005)

What was measured:
A549 cell = test: Cytotoxicity test (SRB method) for A549 cells; type: cell-based, human; conditions: A549, SRB, 48 hours incubation, Table 2
Description: (§1) Human lung carcinomas A549 and […] were used for determining cytotoxicity of the compounds of the present invention according to the Sulfrhodamine-B (SRB) method which was developed by NCI in 1989 in order to determine in vitro anticancer activity of drugs.
(§2) Cells to be used in the experiment were separated from a surface using 0.5% Trypsin-EDTA solution and suspended in a density of 5×10^4 cell/ml therein. The cell suspension was introduced into a 96-well plate in an amount of 180/well and incubated for 24 hours in a 5% CO2 incubator of 37° C. Samples were dissolved in dimethylsulfoxide and then diluted by water distilled in advance for three times just before the experiment. Forty-one (41) samples were prepared into 4 types of final concentrations, i.e., 0.1, 0.03, 0.01 and 0.003 mg per ml of the medium. The diluted sample solutions were added to the 96-well plate in the amount of 20 μl/well and incubated for 48 hours in a CO2 incubator of 37° C. At the time of adding the samples, Tz (Time zero) plate was taken. The medium was removed from the Tz plate and each of the plates after incubation were completed. Ten (10)% […] (TCA) was added in the amount of […], and allowed to stand for 1 hour at 4° C. to fix the cells on the bottom surface of the plate. After the cells were fixed, the plate was washed five to six times with water to completely remove the remaining TCA solution and then dried at room temperature to completely remove the moisture. To the fully dried plate was introduced a dye solution in the amount of […] in which 0.4% SRB was dissolved in 1% acetic acid solution. […] After the dyeing process, the plate was dried again at room temperature. 100 ml of 10 mM Tris solution was added thereto in order to dissolve the dye, and then O.D. (optical density) was determined by microplate reader at 520 nm.
(§3) ED50 values for cancer cells were calculated as follows. The amount of SRB protein was analyzed at the time when incubation started by the addition of the sample. This amount was named time zero (Tz). The O.D. value obtained from a group which was not treated by the sample was named Control group (C) and the O.D. value obtained from a group which was treated by the sample was named Test group (T).
(§4) The degree of cytotoxicity of the compounds was calculated from Tz, C and T values according to the following equation.
(§5) That is, in the case of Tz≧T, the degree was calculated by
(§6) (T−Tz)/(C−Tz)×100(%), and
(§7) • in the case of Tz<T, the degree was calculated by […].
(§8) From the values thus obtained, ED50 value which is defined as the concentration at which growth of the cancer cell is inhibited by 50% was calculated using the regression function of Excel program.

SK-MEL-2 cell = test: Cytotoxicity test (SRB method) for SK-MEL-2 cells; type: cell-based, human; conditions: SK-MEL-2, SRB, 48 hours incubation
Description: as §1, §2, §3, §4, §5, §6, §7, §8

SMILES | ED50(mg/mL) for A549 (A549 cell) | ED50(mg/mL) for SK-MEL-2 (SK-MEL-2 cell)
CCCCCCCCCCCC(=O)Oc1c(OC)cc(C2c3cc4c(cc3CC3COC(=O)C32)OCO4)cc1OC (stereo not drawn) [Compound 1c-11, 4′-demethyl-4′-O-dodecanoyl-1-deoxypodophyllotoxin] | 0.030 mg/mL | 0.025 mg/mL
CCCCCCCCCCCCCC(=O)Oc1c(OC)cc(C2c3cc4c(cc3CC3COC(=O)C32)OCO4)cc1OC (stereo not drawn) [Compound 1c-12, 4′-demethyl-4′-O-tetradecanoyl-1-deoxypodophyllotoxin] | 0.041 mg/mL | 0.050 mg/mL
CCCCCCCCCCCCCCCC(=O)Oc1c(OC)cc(C2c3cc4c(cc3CC3COC(=O)C32)OCO4)cc1OC (stereo not drawn) [Compound 1c-13, 4′-demethyl-4′-O-hexadecanoyl-1-deoxypodophyllotoxin] | 0.268 mg/mL | 0.290 mg/mL
CCCCCC/C=C\CCCCCCCC(=O)Oc1c(OC)cc(C2c3cc4c(cc3CC3COC(=O)C32)OCO4)cc1OC (stereo not drawn) [Compound 1c-14, 4′-demethyl-4′-O-(cis-9′-hexadecenoyl)-1-deoxypodophyllo-toxin] | 0.733 mg/mL | 0.065 mg/mL
CCCCCCCCCCCCCCCCCC(=O)Oc1c(OC)cc(C2c3cc4c(cc3CC3COC(=O)C32)OCO4)cc1OC (stereo not drawn) [Compound 1c-15, 4′-demethyl-4′-O-octadecanoyl-1-deoxypodophyllotoxin] | 2.670 mg/mL | >5 mg/mL
CCCCCCCC/C=C\CCCCCCCC(=O)Oc1c(OC)cc(C2c3cc4c(cc3CC3COC(=O)C32)OCO4)cc1OC (stereo not drawn) [Compound 1c-16, 4′-demethyl-4′-O-(cis-9′-octadecenoyl)-1-deoxypodophyllo-toxin] | 0.179 mg/mL | 0.159 mg/mL
CCCCCCCC/C=C/CCCCCCCC(=O)Oc1c(OC)cc(C2c3cc4c(cc3CC3COC(=O)C32)OCO4)cc1OC (stereo not drawn) [Compound 1c-17, 4′-demethyl-4′-O-(trans-9′-octadecenoyl)-1-deoxypodophyllo-toxin] | 0.367 mg/mL | 0.550 mg/mL
CCCCCC/C=C\CCCCCCCCCC(=O)Oc1c(OC)cc(C2c3cc4c(cc3CC3COC(=O)C32)OCO4)cc1OC (stereo not drawn) [Compound 1c-18, 4′-demethyl-4′-O-(cis-11′-octadecenoyl)-1-deoxypodophyllo-toxin] | 0.335 mg/mL | 0.057 mg/mL
CCCCCC/C=C/CCCCCCCCCC(=O)Oc1c(OC)cc(C2c3cc4c(cc3CC3COC(=O)C32)OCO4)cc1OC (stereo not drawn) [Compound 1c-19, 4′-demethyl-4′-O-(trans-11′-octadecenoyl)-1-deoxypodophyllo-toxin] | 1.010 mg/mL | 0.253 mg/mL
CCCCC/C=C\C/C=C\CCCCCCCC(=O)Oc1c(OC)cc(C2c3cc4c(cc3CC3COC(=O)C32)OCO4)cc1OC (stereo not drawn) [Compound 1c-20, 4′-demethyl-4′-O-(cis-9′,12′-octadecadienoyl)-1-deoxypodophyllo-toxin] | 0.090 mg/mL | 0.030 mg/mL
CCCCC/C=C/C/C=C/CCCCCCCC(=O)Oc1c(OC)cc(C2c3cc4c(cc3CC3COC(=O)C32)OCO4)cc1OC (stereo not drawn) [Compound 1c-21, 4′-demethyl-4′-O-(trans-9′,12′-octadecadienoyl)-1-deoxypodophyllo-toxin] | 0.259 mg/mL | 0.110 mg/mL
CC/C=C\C/C=C\C/C=C\CCCCCCCC(=O)Oc1c(OC)cc(C2c3cc4c(cc3CC3COC(=O)C32)OCO4)cc1OC (stereo not drawn) [Compound 1c-22, 4′-demethyl-4′-O-(cis-9′,12′,15′-octadecatrienoyl)-1-deoxypodophyllotoxin] | 0.084 mg/mL | 0.048 mg/mL
CCCCC/C=C\C/C=C\C/C=C\CCCCC(=O)Oc1c(OC)cc(C2c3cc4c(cc3CC3COC(=O)C32)OCO4)cc1OC (stereo not drawn) [Compound 1c-23, 4′-demethyl-4′-O-(cis-6′,9′,12′-octadecatrienoyl)-1-deoxypodophyllotoxin] | 0.085 mg/mL | 0.041 mg/mL
CCCCCCCCCCCCCCCCCCCC(=O)Oc1c(OC)cc(C2c3cc4c(cc3CC3COC(=O)C32)OCO4)cc1OC (stereo not drawn) [Compound 1c-24, 4′-demethyl-4′-O-eicosanoyl-1-deoxypodophyllotoxin] | >5 mg/mL | >5 mg/mL
CCCCCCCC/C=C\CCCCCCCCCC(=O)Oc1c(OC)cc(C2c3cc4c(cc3CC3COC(=O)C32)OCO4)cc1OC (stereo not drawn) [Compound 1c-25, 4′-demethyl-4′-O-(cis-11′-eicosenoyl)-1-deoxypodophyllotoxin] | >5 mg/mL | >5 mg/mL
CCCCCCCC/C=C/CCCCCCCCCC(=O)Oc1c(OC)cc(C2c3cc4c(cc3CC3COC(=O)C32)OCO4)cc1OC (stereo not drawn) [Compound 1c-26, 4′-demethyl-4′-O-(trans-11′-eicosenoyl)-1-deoxypodophyllotoxin] | 1.660 mg/mL | 1.130 mg/mL
CCCCC/C=C\C/C=C\CCCCCCCCCC(=O)Oc1c(OC)cc(C2c3cc4c(cc3CC3COC(=O)C32)OCO4)cc1OC (stereo not drawn) [Compound 1c-27, 4′-demethyl-4′-O-(cis-11′,14′-eicosadienoyl)-1-deoxypodophyllotoxin] | 0.870 mg/mL | 0.347 mg/mL
CCCCC/C=C\C/C=C\C/C=C\C/C=C\CCCC(=O)Oc1c(OC)cc(C2c3cc4c(cc3CC3COC(=O)C32)OCO4)cc1OC (stereo not drawn) [Compound 1c-28, 4′-demethyl-4′-O-(cis-5′,8′,11′,14′-eicosatetraenoyl)-1-deoxypodophyllotoxin] | 0.910 mg/mL | 0.184 mg/mL
CCCCCCCCCCCCCCCCCCCCCC(=O)Oc1c(OC)cc(C2c3cc4c(cc3CC3COC(=O)C32)OCO4)cc1OC (stereo not drawn) [Compound 1c-29, 4′-demethyl-4′-O-docosanoyl-1-deoxypodophyllotoxin] | >5 mg/mL | >5 mg/mL
CCCCCCCC/C=C\CCCCCCCCCCCC(=O)Oc1c(OC)cc(C2c3cc4c(cc3CC3COC(=O)C32)OCO4)cc1OC (stereo not drawn) [Compound 1c-30, 4′-demethyl-4′-O-(cis-13′-docosenoyl)-1-deoxypodophyllotoxin] | 2.710 mg/mL | 0.561 mg/mL
CC/C=C\C/C=C\C/C=C\C/C=C\C/C=C\C/C=C\CCC(=O)Oc1c(OC)cc(C2c3cc4c(cc3CC3COC(=O)C32)OCO4)cc1OC (stereo not drawn) [Compound 1c-31, 4′-demethyl-4′-O-(cis-4′,7′,10′,13′,16′,19′-docohexaenoyl)-1-deoxypodophyllotoxin] | 0.119 mg/mL | 0.035 mg/mL
COc1cc(C2c3cc4c(cc3CC3COC(=O)C32)OCO4)cc(OC)c1OC(=O)/C=C(C)/C=C/C=C(C)/C=C/C1=C(C)CCCC1(C)C (stereo not drawn) [Compound 1c-32, 4′-demethyl-4′-O-retinoyl-1-deoxypodophyllotoxin] | 2.130 mg/mL | 0.387 mg/mL
COc1cc(C2c3cc4c(cc3CC3COC(=O)C32)OCO4)cc(OC)c1OC(=O)CCCCC(=O)O (stereo not drawn) [Compound 1c-33, 4′-demethyl-4′-O-(5′-carboxy-pentanoyl)-1-deoxypodophyllotoxin] | 0.258 mg/mL | 0.062 mg/mL
COc1cc(C2c3cc4c(cc3CC3COC(=O)C32)OCO4)cc(OC)c1OC(=O)CCCCCCC(=O)O (stereo not drawn) [Compound 1c-34, 4′-demethyl-4′-O-(7′-carboxy-heptanoyl)-1-deoxypodophyllotoxin] | 0.175 mg/mL | 0.066 mg/mL
COc1cc(C2c3cc4c(cc3CC3COC(=O)C32)OCO4)cc(OC)c1OC(=O)CCCCCCCCC(=O)O (stereo not drawn) [Compound 1c-35, 4′-demethyl-4′-O-(9′-carboxy-nonanoyl)-1-deoxypodophyllotoxin] | 0.014 mg/mL | 0.015 mg/mL
COc1cc(C2c3cc4c(cc3CC3COC(=O)C32)OCO4)cc(OC)c1OC(=O)CCCCCCCCCCC(=O)O (stereo not drawn) [Compound 1c-36, 4′-demethyl-4′-O-(11′-carboxy-undecanoyl)-1-deoxypodophyllotoxin] | 0.046 mg/mL | 0.068 mg/mL
COc1cc(C2c3cc4c(cc3CC3COC(=O)C32)OCO4)cc(OC)c1OC(=O)CCCCCCCCCCCCC(=O)O (stereo not drawn) [Compound 1c-37, 4′-demethyl-4′-O-(13′-carboxy-tridecanoyl)-1-deoxypodophyllotoxin] | 0.019 mg/mL | 0.070 mg/mL
